# Measured values: patent publication US11180462B2, “Microbiocidal oxadiazole derivatives” (SYNGENTA PARTICIPATIONS AG, priority 2015, dated 2021)
# Key:
# [1] = tested on: Puccinia recondita f. Sp. Tritici; test: Fungicidal activity against Puccinia recondita f. sp. tritici / wheat / leaf disc preventative (brown rust); type: in vivo; details: foliar, 200 ppm in the applied formulation, wheat leaf segments, preventative, compared to untreated control leaf disks, read-out: disease control
# Experimental: Leaf disks or leaf segments of various plant species are cut from plants grown in a greenhouse. The cut leaf disks or segments are placed in multiwell plates (24-well format) onto water agar. The leaf disks are sprayed with a test solution before (preventative) or after (curative) inoculation. Compounds to be tested are prepared as DMSO solutions (max. 10 mg/ml) which are diluted to the appropriate concentration with 0.025% Tween20 just before spraying. The inoculated leaf disks or segments are incubated under defined conditions (temperature, relative humidity, light, etc.) according to the respective test system. A single evaluation of disease level is carried out 3 to 14 days after inoculation, depending on the pathosystem. Percent disease control relative to the untreated check leaf disks or segments is then calculated.
# Fungicidal Activity Against Puccinia recondita f. Sp. Tritici/Wheat/Leaf Disc Preventative (Brown Rust)
# Wheat leaf segments cv. Kanzler were placed on agar in multiwell plates (24-well format) and sprayed with the formulated test compound diluted in water. The leaf disks were inoculated with a spore suspension of the fungus 1 day after application. The inoculated leaf segments were incubated at 19° C. and 75% relative humidity (rh) under a light regime of 12 hours light/12 hours darkness in a climate cabinet and the activity of a compound was assessed as percent disease control compared to untreated when an appropriate level of disease damage appears in untreated check leaf segments (7 to 9 days after application).
# The following compounds at 200 ppm in the applied formulation give at least 80% disease control in this test when compared to untreated control leaf disks under the same conditions, which show extensive disease development.
# [2] = tested on: Glomerella lagenarium (Colletotrichum lagenarium); test: Fungicidal activity against Glomerella lagenarium (Colletotrichum lagenarium) liquid culture / cucumber / preventative (anthracnose); type: cell-based; details: Colletotrichum orbiculare; 20 ppm in the applied formulation; liquid culture (PDB), growth inhibition measured photometrically after 3 to 4 days; compared to untreated control; read-out: disease control
# Summary of the method: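 Photometric read-out of fungal growth after 2–7 days, expressed as percent antifungal activity versus untreated check. Cryo-stored conidia in PDB; compound at 20 ppm; dark, 24 °C, 96% RH.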
SMILES,pest or weed control at 200 ppm [1],inhibition of growth at 20 ppm [2]
"CCCON(Cc1ccc(-c2noc(C(F)(F)F)n2)cc1)C(=O)C1CCCCO1 (stereo not drawn) [Compound 1.283, N-propoxy-N-[[4-[5-(trifluoromethyl)-1,2,4-oxadiazol-3-yl]phenyl]methyl]-tetrahydropyran-2-carboxamide]",≥ 80%,≥ 80%
"CCCON(Cc1ccc(-c2noc(C(F)(F)F)n2)cc1)C(=O)COC [Compound 1.287, 2-methoxy-N-propoxy-N-[[4-[5-(trifluoromethyl)-1,2,4-oxadiazol-3-yl]phenyl]methyl]-acetamide]",≥ 80%,≥ 80%
"CCCON(Cc1ccc(-c2noc(C(F)(F)F)n2)cc1)C(=O)COCCOC [Compound 1.298, 2-(2-methoxyethoxy)-N-propoxy-N-[[4-[5-(trifluoromethyl)-1,2,4-oxadiazol-3-yl]phenyl]methyl]-acetamide]",≥ 80%,≥ 80%
"C#CC(=O)N(Cc1ccc(-c2noc(C(F)(F)F)n2)cc1)OCCC [Compound 1.305, N-propoxy-N-[[4-[5-(trifiuoromethyl)-1,2,4-oxadiazol-3-yl]phenyl]methyl]-prop-2-ynamide]",≥ 80%,≥ 80%
"CCCON(Cc1ccc(-c2noc(C(F)(F)F)n2)cc1)C(=O)COC(C)=O [Compound 1.306, [2-oxo-2-[propoxy-[[4-[5-(trifluoromethyl)-1,2,4-oxadiazol-3-yl]phenyl]methyl]-amino]ethyl] acetate]",≥ 80%,≥ 80%
"CCCON(Cc1ccc(-c2noc(C(F)(F)F)n2)cc1)C(=O)C1(C#N)CC1 [Compound 1.313, 1-cyano-N-propoxy-N-[[4-[5-(trifluoromethyl)-1,2,4-oxadiazol-3-yl]phenyl]methyl]-cyclopropane-carboxamide]",≥ 80%,≥ 80%
"CCCON(Cc1ccc(-c2noc(C(F)(F)F)n2)cc1)C(C)=O [Compound 1.320, N-propoxy-N-[[4-[5-(trifluoromethyl)-1,2,4-oxadiazol-3-yl]phenyl]methyl]-acetamide]",≥ 80%,≥ 80%
"COCCN(Cc1ccc(-c2noc(C(F)(F)F)n2)cc1)C(=O)C=CC(F)(F)F [Compound 1.338, 4,4,4-trifluoro-N-(2-methoxyethyl)-N-[[4-[5-(trifluoromethyl)-1,2,4-oxadiazol-3-yl]phenyl]methyl]but-2-enamide]",≥ 80%,≥ 80%
"COCCN(Cc1ccc(-c2noc(C(F)(F)F)n2)cc1)C(=O)C=CC(C)=O [Compound 1.352, N-(2-methoxyethyl)-4-oxo-N-[[4-[5-(trifluoromethyl)-1,2,4-oxadiazol-3-yl]phenyl]methyl]-pent-2-enamide]",≥ 80%,≥ 80%
"CC#CC(=O)N(Cc1ccc(-c2noc(C(F)(F)F)n2)cc1)C(C)CC (stereo not drawn) [Compound 1.367, N-sec-butyl-N-[[4-[5-(trifluoromethyl)-1,2,4-oxadiazol-3-yl]phenyl]methyl]-but-2-ynamide]",≥ 80%,≥ 80%
"CCC(C)N(Cc1ccc(-c2noc(C(F)(F)F)n2)cc1)C(=O)C1CCCC1 (stereo not drawn) [Compound 1.376, N-sec-butyl-N-[[4-[5-(trifluoromethyl)-1,2,4-oxadiazol-3-yl]phenyl]methyl]-cyclopentane-carboxamide]",≥ 80%,≥ 80%
"CCC(C)N(Cc1ccc(-c2noc(C(F)(F)F)n2)cc1)C(=O)c1ccoc1 (stereo not drawn) [Compound 1.405, N-sec-butyl-N-[[4-[5-(trifluoromethyl)-1,2,4-oxadiazol-3-yl]phenyl]methyl]-furan-3-carboxamide]",≥ 80%,≥ 80%
"CC#CC(=O)N(Cc1ccc(-c2noc(C(F)(F)F)n2)cc1)CC1CCCO1 (stereo not drawn) [Compound 1.410, N-(tetrahydrofuran-2-ylmethyl)-N-[[4-[5-(trifluoromethyl)-1,2,4-oxadiazol-3-yl]phenyl]methyl]-2-ynamide]",≥ 80%,≥ 80%
"CC=CC(=O)N(Cc1ccc(-c2noc(C(F)(F)F)n2)cc1)CC1CCCO1 (stereo not drawn) [Compound 1.413, N-(tetrahydrofuran-2-ylmethyl)-N-[[4-[5-(trifluoromethyl)-1,2,4-oxadiazol-3-yl]phenyl]methyl]but-2-enamide]",≥ 80%,≥ 80%
"O=C(C1CC1(F)F)N(Cc1ccc(-c2noc(C(F)(F)F)n2)cc1)CC1CCCO1 (stereo not drawn) [Compound 1.414, 2,2-difluoro-N-(tetrahydrofuran-2-ylmethyl)-N-[[4-[5-(trifluoromethyl)-1,2,4-oxadiazol-3-yl]phenyl]methyl]-cyclopropane-carboxamide]",≥ 80%,≥ 80%
"CC(C)CC(=O)N(Cc1ccc(-c2noc(C(F)(F)F)n2)cc1)CC1CCCO1 (stereo not drawn) [Compound 1.423, 3-methyl-N-(tetrahydrofuran-2-ylmethyl)-N-[[4-[5-(trifluoromethyl)-1,2,4-oxadiazol-3-yl]phenyl]methyl]-butanamide]",≥ 80%,≥ 80%
"O=C(C1CCC1)N(Cc1ccc(-c2noc(C(F)(F)F)n2)cc1)CC1CCCO1 (stereo not drawn) [Compound 1.424, N-(tetrahydrofuran-2-ylmethyl)-N-[[4-[5-(trifluoromethyl)-1,2,4-oxadiazol-3-yl]phenyl]methyl]-cyclobutane-carboxamide]",≥ 80%,≥ 80%
"C=CC(=O)N(Cc1ccc(-c2noc(C(F)(F)F)n2)cc1)CC1CCCO1 (stereo not drawn) [Compound 1.430, N-(tetrahydrofuran-2-ylmethyl)-N-[[4-[5-(trifluoromethyl)-1,2,4-oxadiazol-3-yl]phenyl]methyl]-prop-2-enamide]",≥ 80%,≥ 80%
"O=C(N(Cc1ccc(-c2noc(C(F)(F)F)n2)cc1)CC1CCCO1)C1(F)CC1 (stereo not drawn) [Compound 1.436, 1-fluoro-N-(tetrahydrofuran-2-ylmethyl)-N-[[4-[5-(trifluoromethyl)-1,2,4-oxadiazol-3-yl]phenyl]methyl]-cyclopropane-carboxamide]",≥ 80%,≥ 80%
"CCC(C)C(=O)N(Cc1ccc(-c2noc(C(F)(F)F)n2)cc1)CC1CCCO1 (stereo not drawn) [Compound 1.437, 2-methyl-N-(tetrahydrofuran-2-ylmethyl)-N-[[4-[5-(trifluoromethyl)-1,2,4-oxadiazol-3-yl]phenyl]methyl]-butanamide]",≥ 80%,≥ 80%
"CCC(COC)C(=O)N(Cc1ccc(-c2noc(C(F)(F)F)n2)cc1)CC1CCCO1 (stereo not drawn) [Compound 1.440, 2-(methoxymethyl)-N-(tetrahydrofuran-2-ylmethyl)-N-[[4-[5-(trifluoromethyl)-1,2,4-oxadiazol-3-yl]phenyl]methyl]-butanamide]",≥ 80%,≥ 80%
"O=C(c1ccoc1)N(Cc1ccc(-c2noc(C(F)(F)F)n2)cc1)CC1CCCO1 (stereo not drawn) [Compound 1.449, N-(tetrahydrofuran-2-ylmethyl)-N-[[4-[5-(trifluoromethyl)-1,2,4-oxadiazol-3-yl]phenyl]methyl]-furan-3-carboxamide]",≥ 80%,≥ 80%
"CCCCC(=O)N(Cc1ccc(-c2noc(C(F)(F)F)n2)cc1)CC1CCCO1 (stereo not drawn) [Compound 1.453, N-(tetrahydrofuran-2-ylmethyl)-N-[[4-[5-(trifluoromethyl)-1,2,4-oxadiazol-3-yl]phenyl]methyl]-pentanamide]",≥ 80%,≥ 80%
"CC(=O)NCC(=O)N(Cc1ccc(-c2noc(C(F)(F)F)n2)cc1)Cc1ccco1 [Compound 1.461, 2-acetamido-N-(2-furylmethyl)-N-[[4-[5-(trifluoromethyl)-1,2,4-oxadiazol-3-yl]phenyl]methyl]-acetamide]",≥ 80%,≥ 80%
"O=C(CCl)N(Cc1ccc(-c2noc(C(F)(F)F)n2)cc1)Cc1ccco1 [Compound 1.462, 2-chloro-N-(2-furylmethyl)-N-[[4-[5-(trifluoromethyl)-1,2,4-oxadiazol-3-yl]phenyl]methyl]-acetamide]",≥ 80%,≥ 80%
"O=C(C1CC1(F)F)N(Cc1ccc(-c2noc(C(F)(F)F)n2)cc1)Cc1ccco1 (stereo not drawn) [Compound 1.464, 2,2-difluoro-N-(2-furylmethyl)-N-[[4-[5-(trifluoromethyl)-1,2,4-oxadiazol-3-yl]phenyl]methyl]-cyclopropane-carboxamide]",≥ 80%,≥ 80%
"C=CCN(Cc1ccc(-c2noc(C(F)(F)F)n2)cc1)C(=O)CCl [Compound 1.482, N-allyl-2-chloro-N-[[4-[5-(trifluoromethyl)-1,2,4-oxadiazol-3-yl]phenyl]methyl]-acetamide]",≥ 80%,≥ 80%
